From PMC3236199, “Development of Derivatives of 3, 3′-Diindolylmethane as Potent Leishmania donovani Bi-Subunit Topoisomerase IB Poisons” (PLoS ONE, 2011)

How the values were obtained:
[1] = tested on: LdTOP1LS; assay: Equilibrium (duplex oligonucleotide) cleavage assay, wild type enzyme; format: biochemical, Leishmania donovani; conditions: 20 µM, with respect to cleavable complex formed without drug with wild type enzyme
Experimental: The 25-mer oligonucleotide 1 (5′-GAAAAAAGACTT↓AGAAAAATTTTTA-3′) was 5′-end labeled with [γ^32P] ATP and annealed with oligonucleotide 2 (5′-[…]-3′) to make a duplex oligonucleotide containing a topoisomerase I binding motif as described. Cleavage assay was carried out using 20-fold molar excess of enzymes over duplex 25-mer DNA (enzymes, 0.2 µM; DNA, 10 nM). The reactions were carried out in standard assay condition in the absence or presence of drugs at 37°C for 30 min. All the reactions were stopped by addition of SDS to a final concentration of 2% (w/v), digested with 5 µl of 1 mg/ml trypsin and analyzed by 12% denaturing polyacrylamide gel followed by autoradiography. The amount of strand cleavage in the presence of drugs was determined by densitometry of the film as described.
The effect of DIM and its derivatives on L. donovani topoisomerase I was examined by plasmid DNA cleavage assay as described. The topoisomerase reaction has three general mechanistic steps: (i) binding of enzyme to the substrate DNA, (ii) single strand breakage and subsequent strand rotation through the break leading to change in linking number, and (iii) strand religation. The second step of reaction is the introduction of a single-stranded nick in the phosphodiester bond of the DNA, through which an intact strand is allowed to pass. During this process, a covalent bond is formed between the 3′-phosphoryl group of the DNA backbone and the tyrosine residue at the active site of topoisomerase I. Topoisomerase inhibition can be achieved by prevention of enzyme-DNA binary complex formation or by stabilization of enzyme-DNA cleavable complex. To investigate the ability of DIM-derivatives to stabilize the cleavable complex formation between enzyme and oligonucleotide containing a topoisomerase IB specific binding motif we carried out plasmid cleavage assay as described previously. Cleavage assay was performed with LdTOP1LS and pHOT1 DNA containing a topoisomerase IB specific binding motif as described in ‘Materials and Methods’. […]

[2] = tested on: DIM resistant parasites (LdDR50); assay: DNA fragmentation assay (cell death detection ELISA), DIM resistant; format: cell-based, Leishmania donovani; conditions: 20 µM
Experimental: Leishmanial cells were cultured in 24-well plates and treated with 20 µM of DIM, DPDIM, DMDIM and DMODIM for different times. Samples were collected at requisite time points and subjected to measurement of DNA fragmentations. Cytoplasmic histone-associated DNA fragments (mononucleosome and oligonucleosomes) formed during apoptosis were detected using a cell death detection ELISA kit (Roche Biochemicals) by spectrophotometric measurement of microtiter plates in a Thermo MULTISKAN EX plate reader at 405 nm. The relative percentages (with respect to samples treated with micrococcal nuclease and normalized to percentage values) were plotted as units of time or drug concentrations as described previously.
The internucleosomal DNA digestion by an endogenous nuclease (genomic DNA fragmentation) is considered as a hallmark of apoptotic cell death. […] To investigate whether these derivatives also do the same, we performed the DNA fragmentation assay with wild type L. donovani AG83 promastigotes and DIM resistant parasites (Fig. 4) by ELISA as described in Materials and Methods. […] DNA fragmentation increased to 85%, 89%, 81% and 71% at 8 h of treatment in wild type parasites. The DIM resistant parasites (LdDR50) have much less effect in DNA fragmentation (13% at 6 h and 17% at 8 h) when treated with 20 µM DIM. On the other hand the extents of DNA fragmentations were 63%, 51% and 40% at 6 h treatment with DPDIM, DMDIM and DMODIM respectively. The extent of fragmentation increased to 82%, 74% and 65% after treatment for 8 h with the drugs as mentioned above.
Figure 4 DIM derivatives-induced fragmentation of genomic DNA in wild type and DIM resistant parasites. Relative percentage of DNA fragmentation measured by cell death detection ELISA kit in L. donovani promastigotes treated with DIM, DPDIM, DMDIM and DMODIM. The experiments were performed three times and representative data from one of these experiments as means ± SD.

Row | SMILES | extent of cleavage [1] | fragmentation of DNA ([2]; 6 h) [%] | fragmentation of DNA ([2]; 8 h) [%]
1 | Cc1[nH]c2ccccc2c1Cc1c(C)[nH]c2ccccc12 [DMDIM, 2,2′-dimethyl 3,3′-diindolyl methane] | approximately 61% | 51 | 74
2 | COc1ccc2[nH]cc(Cc3c[nH]c4ccc(OC)cc34)c2c1 [DMODIM, 5,5′-dimethoxy 3,3′-diindolyl methane] | ~56% | 40 | 65
3 | c1ccc2c(Cc3c[nH]c4ccccc34)c[nH]c2c1 [DIM, 3, 3′-diindolyl methane, reference compound] |  | 13 | 17
4 | c1ccc(-c2[nH]c3ccccc3c2Cc2c(-c3ccccc3)[nH]c3ccccc23)cc1 [DPDIM, 2,2′-diphenyl 3,3′-diindolyl methane] | 67% | 63 | 82
